Experiments:
[1] = biological target: T1, Melatonin receptor type 1A (Homo sapiens, UniProt P48039)
[2] = Antiproliferative activity against mouse mammary carcinoma cell after 24 hrs by MTT assay; assay type: functional
MDA-MB-231 [3] = assay: Antiproliferative activity against human MDA-MB-231 cells after 24 hrs by MTT assay; assay type: functional, cell-based; conditions: MDA-MB-231, 24 h
BT-549 [4] = assay: Antiproliferative activity against human BT549 cells after 24 hrs by MTT assay; assay type: functional, cell-based; conditions: BT-549, 24 h
MCF7 [5] = assay: Antiproliferative activity against human MCF7 cells at 1 nM to 100 uM after 24 hrs by MTT assay relative to control; assay type: functional; conditions: at 0.001 to 100 µM
[6] = Antiproliferative activity against mouse mammary carcinoma cell at 1 nM to 100 uM after 24 hrs by MTT assay relative to control; assay type: functional; conditions: at 0.001 to 100 µM
MDA-MB-231 [7] = assay: Antiproliferative activity against human MDA-MB-231 cells at 1 nM to 100 uM after 24 hrs by MTT assay relative to control; assay type: functional; conditions: at 0.001 to 100 µM
BT-549 [8] = assay: Antiproliferative activity against human BT549 cells at 1 nM to 100 uM after 24 hrs by MTT assay relative to control; assay type: functional; conditions: at 0.001 to 100 µM
MCF7 [9] = assay: Antiproliferative activity against human MCF7 cells after 24 hrs by MTT assay; assay type: functional, cell-based; conditions: MCF7, 24 h
MCF7 [10] = assay: Inhibition of cell migration in human MCF7 cells at 100 uM after 24 hrs by inverted fluorescence microscopy based scratch assay relative to control; assay type: functional; conditions: MCF7, 24 h
[11] = Inhibition of cell migration in mouse mammary carcinoma cell at 100 uM after 24 hrs by inverted fluorescence microscopy based scratch assay relative to control; assay type: functional
MDA-MB-231 [12] = assay: Inhibition of cell migration in human MDA-MB-231 cells at 100 uM after 24 hrs by inverted fluorescence microscopy based scratch assay relative to control; assay type: functional; conditions: MDA-MB-231, 24 h
BT-549 [13] = assay: Inhibition of cell migration in human BT549 cells at 100 uM after 24 hrs by inverted fluorescence microscopy based scratch assay relative to control; assay type: functional; conditions: BT-549, 24 h
[14] = biological target: T1, Melatonin receptor type 1A; remark: listed apart in the source

T1 sequence (P48039 whole entry): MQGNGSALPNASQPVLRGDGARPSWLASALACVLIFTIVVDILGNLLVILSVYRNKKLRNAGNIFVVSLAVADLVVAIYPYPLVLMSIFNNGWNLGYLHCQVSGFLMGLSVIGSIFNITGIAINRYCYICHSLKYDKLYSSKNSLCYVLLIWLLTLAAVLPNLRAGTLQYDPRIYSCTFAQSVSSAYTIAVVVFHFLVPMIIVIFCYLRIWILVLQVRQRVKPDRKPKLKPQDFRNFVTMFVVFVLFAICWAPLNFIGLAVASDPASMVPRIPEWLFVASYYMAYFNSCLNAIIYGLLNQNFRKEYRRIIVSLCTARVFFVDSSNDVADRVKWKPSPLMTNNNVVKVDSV

SMILES | Ki [1] [µM] | IC50 (MDA-MB-231 [3]) [µM] | IC50 (BT-549 [4]) [µM] | IC50 (MCF7 [9]) [µM] | KiH [14] [nM] | KiL [14] [nM] | IC50 [2] [µM] | Efficacy (MCF7 [5]) [%] | Efficacy [6] [%] | Efficacy (MDA-MB-231 [7]) [%] | Efficacy (BT-549 [8]) [%] | inhibition at 100 µM (MCF7 [10]) [%] | inhibition at 100 µM [11] [%] | inhibition at 100 µM (MDA-MB-231 [12]) [%] | inhibition at 100 µM (BT-549 [13]) [%]
O=c1ccc2ccc(O)cc2o1 [UMBELLIFERONE] |  | 3.7 | 1000 | 2.9 |  |  |  | 124 | 93 | 88 | 91 |  |  |  | 
CC(C)=CCC/C(C)=C/CC/C(C)=C/COc1ccc2ccc(=O)oc2c1 [UMBELLIPRENIN] |  | 30 |  |  | 1.6 | 3.3 |  | 81 | 61 | 60 | 85 | 9 | 7 | -52 | 23
CCC#CCOc1ccc2ccc(=O)oc2c1 [7-(2-PENTYNYLOXY)COUMARIN] | 0.888 |  | 74 | 50 |  |  | 24 | 89 | 101 | 87 | 86 |  |  |  | 
O=c1ccc2ccc(O/C=C/c3ccccc3)cc2o1 | 0.37 | 6.6 | 140 | 2.2 |  |  |  | 87 | 93 | 82 | 86 |  |  |  | 
CC(C)=CCOc1ccc2ccc(=O)oc2c1 [7-PRENYLOXYCOUMARIN] | 5.2 |  | 37 |  |  |  |  | 105 | 98 | 83 | 94 |  |  |  | 
COc1ccc2[nH]cc(CCNC(C)=O)c2c1 [MELATONIN] |  | 0.9 | 30000 |  |  |  | 0.2 | 87 | 91 | 92 | 91 |  |  |  | 

Now from value to compound, other results behind:

Ki [1] [µM] | IC50 (MDA-MB-231 [3]) [µM] | IC50 (BT-549 [4]) [µM] | IC50 (MCF7 [9]) [µM] | KiH [14] [nM] | KiL [14] [nM] | SMILES | IC50 [2] [µM] | Efficacy (MCF7 [5]) [%] | Efficacy [6] [%] | Efficacy (MDA-MB-231 [7]) [%] | Efficacy (BT-549 [8]) [%] | inhibition at 100 µM (MCF7 [10]) [%] | inhibition at 100 µM [11] [%] | inhibition at 100 µM (MDA-MB-231 [12]) [%] | inhibition at 100 µM (BT-549 [13]) [%]
59 | 22 | 5.6 |  |  |  | COc1cc(/C=C/C(=O)O)ccc1OC/C=C(\C)CCC=C(C)C | 2.5 | 102 | 99 | 79 | 93 |  |  |  | 
0.786 | 63 | 0.045 |  |  |  | COc1cc(/C=C/C=O)ccc1OCC=C(C)C [BOROPINAL] | 0.22 | 94 | 96 | 79 | 83 |  |  |  | 
 |  | 15 | 0.7 |  |  | COc1cc(/C=C/C(=O)O)ccc1OCC=C(C)C [BOROPINIC ACID] | 6.1 | 102 | 98 | 89 | 97 |  |  |  | 
1.9 | 80 | 24 |  |  |  | CC(C)=CCC/C(C)=C/COc1ccc2ccc(=O)oc2c1 |  | 90 | 57 | 67 | 86 | 3 | 5 | -36 | 7
 | 0.5 | 1.2 |  |  |  | COc1cc(/C=C/C(=O)O)ccc1O [FERULATE] |  | 96 | 100 | 92 | 99 |  |  |  | 

Source: ChEMBL document CHEMBL4138184 (J Nat Prod, 2017)
